PubChem BioAssay (NCI)
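Cells were grown in 96-well plates and exposed to each compound for 48 hours at five concentrations; endpoints were interpolated linearly between bracketing concentrations, or set to the highest concentration if not reached. At the TGI there is no net growth.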

How the values were obtained:
Assay in all cases: NCI tumour cell line growth inhibition, 48 h
A498 renal = test system: A498 renal
A549 NSCLC = test system: A549 NSCLC
ACHN renal = test system: ACHN renal
BT-549 breast = test system: BT-549 breast
CAKI-1 renal = test system: CAKI-1 renal
CCRF-CEM leukemia = test system: CCRF-CEM leukemia
COLO 205 colon = test system: COLO 205 colon
DU-145 prostate = test system: DU-145 prostate
EKVX NSCLC = test system: EKVX NSCLC
HCC-2998 colon = test system: HCC-2998 colon
HCT-15 colon = test system: HCT-15 colon
HOP-62 NSCLC = test system: HOP-62 NSCLC
HOP-92 NSCLC = test system: HOP-92 NSCLC
HS 578T breast = test system: HS 578T breast
HT29 colon = test system: HT29 colon
IGROV1 ovarian = test system: IGROV1 ovarian
K-562 leukemia = test system: K-562 leukemia
KM12 colon = test system: KM12 colon
M14 melanoma = test system: M14 melanoma
MALME-3M melanoma = test system: MALME-3M melanoma
MCF7 breast = test system: MCF7 breast
MDA-MB-231 breast = test system: MDA-MB-231 breast
MDA-MB-435 = test system: MDA-MB-435
MOLT-4 leukemia = test system: MOLT-4 leukemia
NCI-H226 lung = test system: NCI-H226 lung
NCI-H23 lung = test system: NCI-H23 lung
NCI-H460 lung = test system: NCI-H460 lung
NCI-H522 lung = test system: NCI-H522 lung
NCI/ADR-RES ovarian = test system: NCI/ADR-RES ovarian
OVCAR-3 ovarian = test system: OVCAR-3 ovarian
OVCAR-4 ovarian = test system: OVCAR-4 ovarian
OVCAR-5 ovarian = test system: OVCAR-5 ovarian
OVCAR-8 ovarian = test system: OVCAR-8 ovarian
PC-3 prostate = test system: PC-3 prostate
RPMI-8226 leukemia = test system: RPMI-8226 leukemia
RXF 393 renal = test system: RXF 393 renal
SF-268 CNS = test system: SF-268 CNS
SF-295 CNS = test system: SF-295 CNS
SF-539 CNS = test system: SF-539 CNS
SK-MEL-2 melanoma = test system: SK-MEL-2 melanoma
SK-MEL-28 melanoma = test system: SK-MEL-28 melanoma
SK-MEL-5 melanoma = test system: SK-MEL-5 melanoma
SK-OV-3 ovarian = test system: SK-OV-3 ovarian
SN12C renal = test system: SN12C renal
SNB-19 CNS = test system: SNB-19 CNS
SNB-75 CNS = test system: SNB-75 CNS
SW-620 colon = test system: SW-620 colon
T-47D breast = test system: T-47D breast
TK-10 renal = test system: TK-10 renal
U251 CNS = test system: U251 CNS
UACC-257 melanoma = test system: UACC-257 melanoma
UACC-62 melanoma = test system: UACC-62 melanoma
UO-31 renal = test system: UO-31 renal

SMILES: Nc1ncnc2c1sc1nc3ccccc3n12
- TGI (A498 renal): > 100 µM
- TGI (A549 NSCLC): > 100 µM
- TGI (ACHN renal): > 100 µM
- TGI (BT-549 breast): > 100 µM
- TGI (CAKI-1 renal): > 100 µM
- TGI (CCRF-CEM leukemia): > 100 µM
- TGI (COLO 205 colon): > 100 µM
- TGI (DU-145 prostate): > 100 µM
- TGI (EKVX NSCLC): > 100 µM
- TGI (HCC-2998 colon): > 100 µM
- TGI (HCT-15 colon): > 100 µM
- TGI (HOP-62 NSCLC): > 100 µM
- TGI (HOP-92 NSCLC): > 100 µM
- TGI (HS 578T breast): > 96.4 µM
- TGI (HT29 colon): > 100 µM
- TGI (IGROV1 ovarian): > 100 µM
- TGI (K-562 leukemia): > 100 µM
- TGI (KM12 colon): > 85 µM
- TGI (M14 melanoma): > 100 µM
- TGI (MALME-3M melanoma): > 100 µM
- TGI (MCF7 breast): > 100 µM
- TGI (MDA-MB-231 breast): > 100 µM
- TGI (MDA-MB-435): > 100 µM
- TGI (MOLT-4 leukemia): > 78.7 µM
- TGI (NCI-H226 lung): > 100 µM
- TGI (NCI-H23 lung): > 100 µM
- TGI (NCI-H460 lung): > 100 µM
- TGI (NCI-H522 lung): > 95.8 µM
- TGI (NCI/ADR-RES ovarian): > 100 µM
- TGI (OVCAR-3 ovarian): > 100 µM
- TGI (OVCAR-4 ovarian): > 100 µM
- TGI (OVCAR-5 ovarian): > 100 µM
- TGI (OVCAR-8 ovarian): > 100 µM
- TGI (PC-3 prostate): > 100 µM
- TGI (RPMI-8226 leukemia): > 100 µM
- TGI (RXF 393 renal): > 69.1 µM
- TGI (SF-268 CNS): > 100 µM
- TGI (SF-295 CNS): > 100 µM
- TGI (SF-539 CNS): 47.9 µM
- TGI (SK-MEL-2 melanoma): > 100 µM
- TGI (SK-MEL-28 melanoma): > 100 µM
- TGI (SK-MEL-5 melanoma): > 100 µM
- TGI (SK-OV-3 ovarian): > 100 µM
- TGI (SN12C renal): > 100 µM
- TGI (SNB-19 CNS): > 100 µM
- TGI (SNB-75 CNS): > 51.2 µM
- TGI (SW-620 colon): > 100 µM
- TGI (T-47D breast): > 100 µM
- TGI (TK-10 renal): > 100 µM
- TGI (U251 CNS): > 100 µM
- TGI (UACC-257 melanoma): > 100 µM
- TGI (UACC-62 melanoma): > 100 µM
- TGI (UO-31 renal): > 100 µM
